Laboratory results published in US9365522B2, “Pyrazole amide derivative” (AMGEN INC., priority 2015, dated 2016).

Biological target: T1, human RORγ-LBD (Homo sapiens, UniProt P51449)
T1 construct: made in house; host or cells: E. coli (BL-21)
T1 sequence (P51449 262-518): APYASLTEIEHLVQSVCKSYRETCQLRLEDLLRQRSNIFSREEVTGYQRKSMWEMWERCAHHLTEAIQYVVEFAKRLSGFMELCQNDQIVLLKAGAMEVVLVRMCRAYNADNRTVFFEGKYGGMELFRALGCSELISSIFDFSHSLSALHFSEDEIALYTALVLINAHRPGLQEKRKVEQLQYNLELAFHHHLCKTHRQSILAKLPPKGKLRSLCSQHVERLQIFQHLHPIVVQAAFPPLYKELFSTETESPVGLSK
Assay: ROR gamma coactivator peptide recruitment Alphascreen assay (RORγ-LBD binding to GRIP1 coactivator peptide)
Type: biochemical
Settings: 5 nM human RORγ-LBD, 30 nM 7-β-hydroxycholesterol, 50 nM biotinylated GRIP1 coactivator peptide, overnight incubation at room temperature; read-out: result (pIC50, RORγ coactivator peptide recruitment Alphascreen assay) (converted)
Method in brief: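 Alphascreen proximity read-out after overnight room-temperature incubation, yielding pIC50 from 1-in-2 compound series (2.5% DMSO final). Mixture: 50 nM biotin-GRIP1 peptide, 30 nM 7-β-hydroxycholesterol agonist, 5 nM recombinant 6×His:Flag human RORγ-LBD (aa 262-518), 50 mM HEPES pH 7.4.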

Row | Structure (SMILES) | IC50 [nM]
1 | C[C@]1(CC(=O)O)CC[C@H](n2ncc(C(=O)N(CC(=O)c3c(Cl)cncc3Cl)Cc3cc(F)cc(F)c3)c2C(F)(F)F)CC1 [Example 789, (trans-4-(4-((2-(3,5-dichloro-4-pyridinyl)-2-oxoethyl)(3,5-difluorobenzyl)carbamoyl)-5-(trifluoromethyl)-1H-pyrazol-1-yl)-1-methylcyclohexyl)acetic acid] | 2.09
2 | CC1(CN(CC(=O)c2c(Cl)cncc2Cl)C(=O)c2cnn([C@H]3CC[C@](C)(C(=O)O)CC3)c2C(F)(F)F)CCCC1 [Example 711, trans-4-(4-((2-(3,5-dichloro-4-pyridinyl)-2-oxoethyl)((1-methylcyclopentyl)methyl)carbamoyl)-5-(trifluoromethyl)-1H-pyrazol-1-yl)-1-methylcyclohexanecarboxylic acid] | 2.04
3 | C[C@@H]1C[C@@H](n2ncc(C(=O)N(CC(=O)c3c(Cl)cncc3Cl)CC3CC(C)(C)C3)c2C(F)(F)F)CC[C@@H]1C(=O)O [Example 756, (1S,2R,4S)-4-(4-((2-(3,5-dichloro-4-pyridinyl)-2-oxoethyl)((3,3-dimethylcyclobutyl)methyl)carbamoyl)-5-(trifluoromethyl)-1H-pyrazol-1-yl)-2-methylcyclohexanecarboxylic acid] | 2.57
4 | COc1cc(Cl)c(C(=O)CN(CC2CC(C)(C)C2)C(=O)c2cnn([C@H]3CC[C@H](C(=O)O)CC3)c2C(F)(F)F)c(Cl)c1 [Example 580, trans-4-(4-((2-(2,6-dichloro-4-methoxyphenyl)-2-oxoethyl)((3,3-dimethylcyclobutyl)methyl)carbamoyl)-5-(trifluoromethyl)-1H-pyrazol-1-yl)cyclohexanecarboxylic acid] | 5.01
5 | Cc1cc(Cl)c(C(=O)CN(CC2(C)CC2)C(=O)c2cnn([C@H]3CC[C@@](C)(C(=O)O)CC3)c2C(F)(F)F)c(Cl)c1 [Example 717] | 2.09
6 | C[C@]1(C(=O)O)CC[C@H](n2ncc(C(=O)N(CC(=O)c3c(Cl)cccc3Cl)CC3CCC4(CC3)CC4)c2C(F)(F)F)CC1 [Example 569, trans-4-(4-((2-(2,6-dichlorophenyl)-2-oxoethyl)(spiro[25]oct-6-ylmethyl)carbamoyl)-5-(trifluoromethyl)-1H-pyrazol-1-yl)-1-methylcyclohexanecarboxylic acid] | 6760
7 | C[C@H]1C[C@@H](n2ncc(C(=O)N(CC(=O)c3c(Cl)cncc3Cl)CC(C)(C)C(F)(F)F)c2C(F)(F)F)CC[C@@H]1C(=O)O (single isomer, unassigned) [Example 879] | 2.95
8 | CC1(C)CC[C@H]1N(CC(=O)c1c(Cl)cccc1Cl)C(=O)c1cnn([C@H]2CC[C@](C)(C(=O)O)CC2)c1C(F)(F)F [Example 619] | 7.76
9 | COC1(CN(CC(=O)c2c(Cl)cncc2Cl)C(=O)c2cnn([C@H]3CC[C@](C)(C(=O)O)CC3)c2C(F)(F)F)CCCCC1 [Example 645, trans-4-(4-((2-(3,5-dichloro-4-pyridinyl)-2-oxoethyl)((1-methoxycyclohexyl)methyl)carbamoyl)-5-(trifluoromethyl)-1H-pyrazol-1-yl)1-methylcyclohexanecarboxylic acid] | 13.8
10 | CC1(CN(CC(=O)c2c(Cl)cc(F)cc2Cl)C(=O)c2cnn([C@H]3CC[C@@](C)(C(=O)O)CC3)c2C(F)(F)F)CC1 [Example 716, trans-4-(4-((2-(2,6-dichloro-4-fluorophenyl)-2-oxoethyl)((1-methylcyclopropyl)methyl)carbamoyl)-5-(trifluoromethyl)-1H-pyrazol-1-yl)-1-methylcyclohexanecarboxylic acid] | 2.69
11 | C[C@@H]1C[C@@H](n2ncc(C(=O)N(CC(=O)c3c(Cl)cncc3Cl)CC3(F)CCCC3)c2C(F)(F)F)CC[C@@H]1C(=O)O [Example 810, (1S,2R,4S)-4-(4-((2-(3,5-dichloro-4-pyridinyl)-2-oxoethyl)((1-fluorocyclopentyl)methyl)carbamoyl)-5-(trifluoromethyl)-1H-pyrazol-1-yl)-2-methylcyclohexanecarboxylic acid] | 3.09

More lines, now with the values ahead:

Row | IC50 [nM] | Structure (SMILES)
12 | 891 | C[C@@H]1C[C@@H](n2ncc(C(=O)N(CC(=O)c3c(Cl)cncc3Cl)CC3CCC4(CC3)CC4)c2C(F)(F)F)CC[C@@H]1C(=O)O [Example 852, (1S,2R,4S)-4-(4-((2-(3,5-dichloro-4-pyridinyl)-2-oxoethyl)(spiro[2.5]oct-6-ylmethyl)carbamoyl)-5-(trifluoromethyl)-1H-pyrazol-1-yl)-2-methylcyclohexanecarboxylic acid]
13 | 5.75 | COc1cc(Cl)c(C(=O)CN(CC2(F)CCCC2)C(=O)c2cnn([C@H]3CC[C@](C)(C(=O)O)CC3)c2C(F)(F)F)c(Cl)c1 [Example 584, trans-4-(4-((2-(2,6-dichloro-4-methoxyphenyl)-2-oxoethyl)((1-fluorocyclopentyl)methyl)carbamoyl)-5-(trifluoromethyl)-1H-pyrazol-1-yl)-1-methylcyclohexanecarboxylic acid]
14 | 2.4 | CC1(CN(CC(=O)c2c(Cl)cccc2Cl)C(=O)c2cnn([C@H]3CC[C@](C)(C(=O)O)CC3)c2C(F)(F)F)CCC1 [Example 760, trans-4-(4-((2-(2,6-dichlorophenyl)-2-oxoethyl)((1-methylcyclobutyl)methyl)carbamoyl)-5-(trifluoromethyl)-1H-pyrazol-1-yl)-1-methylcyclohexanecarboxylic acid]
15 | 25.1 | Cc1cc(Cl)c(C(=O)CN(CC(C)(C)C)C(=O)c2cnn([C@H]3CC[C@H](C(=O)O)CC3)c2C(F)(F)F)c(Cl)c1 [Example 517, trans-4-(4-((2-(2,6-dichloro-4-methylphenyl)-2-oxoethyl)(2,2-dimethylpropyl)carbamoyl)-5-(trifluoromethyl)-1H-pyrazol-1-yl)cyclohexanecarboxylic acid]
16 | 13.8 | CC(C)(C)CN(CC(=O)c1c(Cl)cncc1Cl)C(=O)c1cnn([C@@H]2CC[C@@](C)(C(=O)O)C[C@@H]2F)c1C(F)(F)F [Example 869, (1R,3S,4R)-4-(4-((2-(3,5-dichloro-4-pyridinyl)-2-oxoethyl)(2,2-dimethylpropyl)carbamoyl)-5-(trifluoromethyl)-1H-pyrazol-1-yl)-3-fluoro-1-methylcyclohexanecarboxylic acid]
17 | 776 | O=C(CN(C(=O)c1cnn([C@H]2CC[C@@H](C(=O)O)CC2)c1C(F)(F)F)[C@@H]1CCC12CCC2)c1c(Cl)cccc1Cl [Example 640, cis-4-(4-((2-(2,6-dichlorophenyl)-2-oxoethyl)((1R)-spiro[3.3]hept-1-yl)carbamoyl)-5-(trifluoromethyl)-1H-pyrazol-1-yl)cyclohexanecarboxylic acid]
18 | 6.03 | C[C@]1(C(=O)O)CC[C@H](n2ncc(C(=O)N(CC(=O)c3c(Cl)cccc3Cl)CC3(F)CC3)c2C(F)(F)F)CC1 [Example 611, trans-4-(4-((2-(2,6-dichlorophenyl)-2-oxoethyl)((1-fluorocyclopropyl)methyl)carbamoyl)-5-(trifluoromethyl)-1H-pyrazol-1-yl)-1-methylcyclohexanecarboxylic acid]
19 | 4.47 | Cc1cc(Cl)c(C(=O)CN(C[C@@]2(C)CCCO2)C(=O)c2cnn([C@H]3CC[C@](C)(C(=O)O)CC3)c2C(F)(F)F)c(Cl)c1 [Example 725, trans-4-(4-((2-(2,6-dichloro-4-methylphenyl)-2-oxoethyl)(((2S)-2-methyltetrahydro-2-furanyl)methyl)carbamoyl)-5-(trifluoromethyl)-1H-pyrazol-1-yl)-1-methylcyclohexanecarboxylic acid]
20 | 2.75 | C[C@]1(C(=O)O)CC[C@H](n2ncc(C(=O)N(CC(=O)c3c(Cl)cncc3Cl)CC3CCCCC3)c2C(F)(F)F)CC1 [Example 735]
21 | 13.8 | CC1(C)CC(N(CC(=O)c2c(Cl)cccc2Cl)C(=O)c2cnn([C@H]3CC[C@](C)(C(=O)O)CC3)c2C(F)(F)F)C1 [Example 599, trans-4-(4-((2-(2,6-dichlorophenyl)-2-oxoethyl)(3,3-dimethylcyclobutyl)carbamoyl)-5-(trifluoromethyl)-1H-pyrazol-1-yl)-1-methylcyclohexanecarboxylic acid]
22 | 24.5 | C[C@@H]1C[C@H](n2ncc(C(=O)N(CC(=O)c3c(Cl)cncc3Cl)C[C@]34CC[C@H](CC3)O4)c2C(F)(F)F)CC[C@H]1C(=O)O [Example 867, (1S,2S,4S)-4-(4-((2-(3,5-dichloro-4-pyridinyl)-2-oxoethyl)((1s,4s)-7-oxabicyclo[2.2.1]hept-1-ylmethyl)carbamoyl)-5-(trifluoromethyl)-1H-pyrazol-1-yl)-2-methylcyclohexanecarboxylic acid]
23 | 16.2 | C[C@@H]1C[C@H](n2ncc(C(=O)N(CC(=O)c3c(Cl)cncc3Cl)C[C@]34CC[C@H](CC3)O4)c2C(F)(F)F)CC[C@H]1C(=O)O [Example 880, (1R,2R,4R)-4-(4-((2-(3,5-dichloro-4-pyridinyl)-2-oxoethyl)((1s,4s)-7-oxabicyclo[2.2.1]hept-1-ylmethyl)carbamoyl)-5-(trifluoromethyl)-1H-pyrazol-1-yl)-2-methylcyclohexanecarboxylic acid]
24 | 70.8 | C[C@]1(C(=O)O)CC[C@H](n2ncc(C(=O)N(CC(=O)c3c(Cl)cccc3Cl)[C@H]3CCOC4(CCC4)C3)c2C(F)(F)F)CC1 [Example 653, trans-4-(4-((2-(2,6-dichlorophenyl)-2-oxoethyl)((8S)-5-oxaspiro[3.5]non-8-yl)carbamoyl)-5-(trifluoromethyl)-1H-pyrazol-1-yl)-1-methylcyclohexanecarboxylic acid]
